According to patent publication US5593970A, “Heterocyclic anthracycline analogs” (priority 1994, dated 1997):
Where “and” joins values, the source holds several entries; their conditions need not be identical. Equal values may be shown once. Read-outs that look alike come from different tables or passages of the source.

Key:
Assay in all cases: NCI sulforhodamine B assay
Type in all cases: cell-based, human
MCF-7 = test system: MCF-7
Experimental: (§1) These assays were carried out at the Developmental Therapeutics Program, Division of Cancer Treatment, National Cancer Institute (Bethesda, Md., U.S.A.). The method consists of incubating varying concentrations of the drug with an inoculum of cells for two days. […] The 57 cell lines included two mouse leukemia lines (P388 parental and adriamycin resistant) and […] human cell lines.
(§2) It should be noted that the first two parameters (GI50 and TGI) relate to antiproliferation effects while the third one (LC50) indicates true cytotoxicity. A value of -4 or greater is considered to denote resistance (inactivity).

OVCAR-4 = test system: OVCAR-4
Experimental: as §1, §2

UACC-257 = test system: UACC-257
Experimental: as §1, §2

SNB-19 = conditions: for GI50: read-out: Log10 GI50 (converted)
Experimental: as §1, §2

UO-31 = test system: UO-31
Experimental: as §1, §2

UACC-62 = test system: UACC-62
Experimental: as §1, §2

MCF-7/ADR = test system: MCF-7/ADR
Experimental: as §1, §2

SF-539 = test system: SF-539
Experimental: as §1, §2

RPMI-8226 = conditions: 2880 min
Experimental: as §1, §2

HOP-18 = test system: HOP-18
Experimental: as §1, §2

EKVX = test system: EKVX
Experimental: as §1, §2

SF-295 = test system: SF-295
Experimental: as §1, §2

RXF-393L = test system: RXF-393L
Experimental: as §1, §2

SK-MEL-2 = test system: SK-MEL-2
Experimental: as §1, §2

NCl-H23 = test system: NCl-H23
Experimental: as §1, §2

SW-620 = conditions: for GI50: Homo sapiens, read-out: Log10 GI50 (converted)
Experimental: as §1, §2

HCT-15 = conditions: 2880 min
Experimental: as §1, §2

NCl-H226 = test system: NCl-H226
Experimental: as §1, §2

SN-12C = test system: SN-12C
Experimental: as §1, §2

NCl-H460 = test system: NCl-H460
Experimental: as §1, §2

MALMB-3M = test system: MALMB-3M
Experimental: as §1, §2

[1] = Homo sapiens, 48 h, read-out: Log10 TGI (converted)
[2] = Homo sapiens, read-out: Log10 GI50 (converted)

Structure (SMILES): COC(=O)C1CC2=C(C(=O)c3c(cc4ccccc4c3O)C2=O)C(O[C@H]2C[C@H](NC(=O)C(F)(F)F)[C@H](O)[C@H](C)O2)O1 (mixture of isomers) [BCH-242, (1'S,1R,3S) and (1'S, 1S,3R)-Methyl[11-hydroxy-1-2',3',6'-trideoxy-3-trifluroacetamido-L-lyxohexopyranose)-5,12-dioxo-3,4,5,12-tetrahydroanthraceno[2,3-c]pyran-3-yl]formate]
- CC50 (MCF-7; Homo sapiens, MCF7, 48 h, read-out: Log10 LC50, MCF-7 (converted)): 5.37 µM
- GI50 (MCF-7; Homo sapiens, MCF7, MCF-7; read-out: Log10 GI50 (converted)): 0.324 µM
- GI50 (MCF-7; Homo sapiens, MCF7; MCF-7; read-out: Log10 GI50 (converted)): 1.55 µM
- Log10 LC50 (MCF-7; MCF-7; 2880 min): -5.38 log molar
- IC100 (OVCAR-4; Homo sapiens, OVCAR-4, 48 h, OVCAR-4, read-out: Log10 TGI (converted)): 3.31 µM
- CC50 (OVCAR-4; Homo sapiens, OVCAR-4, 48 h, read-out: Log10 LC50, OVCAR-4 (converted)): 6.03 µM
- Log10 GI50 (OVCAR-4; OVCAR-4): -5.94 log molar
- Log10 TGI (OVCAR-4; OVCAR-4): -5.63 log molar
- Log10 LC50 (OVCAR-4; OVCAR-4, 2880 min): -5.31 log molar
- CC50 (UACC-257; Homo sapiens, UACC-257, 48 h, read-out: Log10 LC50, UACC-257 (converted)): 6.61 µM
- Log10 LC50 (UACC-257; UACC-257, 2880 min): -5.47 log molar
- CC50 (SNB-19; Homo sapiens, SNB-19, 48 h, read-out: Log10 LC50, SNB-19 (converted)): 36.3 µM
- GI50 (SNB-19; Homo sapiens, SNB-19, SNB-19): 3.8 µM
- GI50 (SNB-19; Homo sapiens, SNB-19): 2.29 µM
- Log10 LC50 (SNB-19; SNB-19, 2880 min): -4.65 log molar
- Log10 GI50 (UO-31): -5.62 log molar
- Log10 LC50 (UO-31; 2880 min): -4.77 log molar
- IC100 (UACC-62; Homo sapiens, UACC-62, 48 h, UACC-62, read-out: Log10 TGI (converted)): 3.16 µM
- CC50 (UACC-62; Homo sapiens, UACC-62, 48 h, read-out: Log10 LC50, UACC-62 (converted)): 5.62 µM
- Log10 TGI (UACC-62; UACC-62): -5.77 log molar
- Log10 LC50 (UACC-62; UACC-62, 2880 min): -5.37 log molar
- CC50 (MCF-7/ADR; Homo sapiens, NCI/ADR-RES, 48 h, read-out: Log10 LC50, MCF-7/ADR (converted)): 7.08 µM
- Log10 LC50 (MCF-7/ADR; MCF-7/ADR, 2880 min): -5.15 log molar and -5.40 log molar
- IC100 (SF-539; Homo sapiens, SF-539, 48 h, SF-539, read-out: Log10 TGI (converted)): 4.37 µM
- CC50 (SF-539; Homo sapiens, SF-539, 48 h, read-out: Log10 LC50, SF-539 (converted)): 9.33 µM
- GI50 (SF-539; Homo sapiens, SF-539, SF-539, read-out: Log10 GI50 (converted)): 2.04 µM
- Log10 GI50 (SF-539; SF-539): -5.90 log molar
- Log10 TGI (SF-539; SF-539): -5.60 log molar
- Log10 LC50 (SF-539; SF-539, 2880 min): -5.30 log molar
- Log10 LC50 (RPMI-8226): -4.47 log molar
- Log10 GI50 (HOP-18; HOP-18): -5.94 log molar
- Log10 TGI (HOP-18; HOP-18): -5.45 log molar
- Log10 LC50 (HOP-18; HOP-18, 2880 min): -4.92 log molar
- IC100 (HOP-18; Homo sapiens, HOP-18, 48 h, HOP-18, read-out: Log10 TGI (converted)): 4.9 µM
- CC50 (HOP-18; Homo sapiens, HOP-18, 48 h, read-out: Log10 LC50, HOP-18 (converted)): 16.6 µM
- GI50 (HOP-18; Homo sapiens, HOP-18, HOP-18, read-out: Log10 GI50 (converted)): 1.91 µM
- Log10 GI50 (EKVX): -5.83 log molar
- Log10 LC50 (EKVX; 2880 min): -5.27 log molar
- CC50 (EKVX; Homo sapiens, 48 h, read-out: Log10 LC50, EKVX (converted)): 6.31 µM
- IC100 (EKVX; [1]): 3.39 µM
- GI50 (EKVX; [2]): 1.78 µM
- IC100 (SF-295; Homo sapiens, SF-295, 48 h, SF-295, read-out: Log10 TGI (converted)): 7.08 µM
- GI50 (SF-295; Homo sapiens, SF-295, SF-295, read-out: Log10 GI50 (converted)): 2.4 µM
- Log10 GI50 (SF-295; SF-295): -5.70 log molar
- Log10 TGI (SF-295; SF-295): -5.41 log molar
- IC100 (RXF-393L; Homo sapiens, 48 h, RXF-393L, read-out: Log10 TGI (converted)): 2.63 µM
- CC50 (RXF-393L; Homo sapiens, 48 h, read-out: Log10 LC50, RXF-393L (converted)): 5.37 µM
- GI50 (RXF-393L; Homo sapiens, RXF-393L, read-out: Log10 GI50 (converted)): 1.29 µM
- Log10 GI50 (RXF-393L; RXF-393L): -6.05 log molar
- Log10 TGI (RXF-393L; RXF-393L): -5.67 log molar
- Log10 LC50 (RXF-393L; RXF-393L, 2880 min): -5.32 log molar
- CC50 (SK-MEL-2; Homo sapiens, SK-MEL-2, 48 h, read-out: Log10 LC50, SK-MEL-2 (converted)): 5.75 µM
- Log10 LC50 (SK-MEL-2; SK-MEL-2, 2880 min): -5.39 log molar
- IC100 (NCl-H23; Homo sapiens, 48 h, NCl-H23, read-out: Log10 TGI (converted)): 3.24 µM
- CC50 (NCl-H23; Homo sapiens, NCI-H23, 48 h, read-out: Log10 LC50, NCl-H23 (converted)): 5.89 µM
- Log10 GI50 (NCl-H23; NCl-H23): -5.99 log molar
- Log10 TGI (NCl-H23; NCl-H23): -5.65 log molar
- Log10 LC50 (NCl-H23; NCl-H23, 2880 min): -5.31 log molar
- GI50 (SW-620; SW-620, SW-620): > 100 µM
- GI50 (SW-620; SW-620): 1.32 µM
- Log10 LC50 (SW-620; SW-620, 2880 min): -5.19 log molar
- Log10 LC50 (HCT-15): -5.38 log molar
- Log10 GI50 (NCl-H226): -5.71 log molar
- Log10 TGI (NCl-H226): -5.44 log molar
- IC100 (NCl-H226; [1]): 6.61 µM
- GI50 (NCl-H226; [2]): 2.75 µM
- IC100 (SN-12C; Homo sapiens, SN12C, 48 h, SN-12C, read-out: Log10 TGI (converted)): 3.02 µM
- CC50 (SN-12C; Homo sapiens, SN12C, 48 h, read-out: Log10 LC50, SN-12C (converted)): 5.5 µM
- GI50 (SN-12C; Homo sapiens, SN12C, SN-12C, read-out: Log10 GI50 (converted)): 1.62 µM
- Log10 GI50 (SN-12C; SN-12C): -5.94 log molar
- Log10 TGI (SN-12C; SN-12C): -5.62 log molar
- Log10 LC50 (SN-12C; SN-12C, 2880 min): -5.31 log molar
- IC100 (NCl-H460; Homo sapiens, 48 h, NCl-H460, read-out: Log10 TGI (converted)): 3.98 µM
- CC50 (NCl-H460; Homo sapiens, NCI-H460, 48 h, read-out: Log10 LC50, NCl-H460 (converted)): 8.13 µM
- Log10 TGI (NCl-H460; NCl-H460): -5.70 log molar
- Log10 LC50 (NCl-H460; NCl-H460, 2880 min): -5.33 log molar
- IC100 (MALMB-3M; Homo sapiens, 48 h, MALMB-3M, read-out: Log10 TGI (converted)): 3.24 µM
- CC50 (MALMB-3M; Homo sapiens, 48 h, read-out: Log10 LC50, MALMB-3M (converted)): 5.75 µM
- GI50 (MALMB-3M; Homo sapiens, MALMB-3M, read-out: Log10 GI50 (converted)): 1.78 µM
- Log10 GI50 (MALMB-3M; MALMB-3M): -6.02 log molar
- Log10 TGI (MALMB-3M; MALMB-3M): -5.67 log molar
- Log10 LC50 (MALMB-3M; MALMB-3M, 2880 min): -5.33 log molar
